Reference: patent publication US11045411B2, “Process for treating keratin materials using amide, acid or ester c-glycoside derivatives, and cosmetic composition containing same” (L'OREAL, priority 2015, dated 2021)
Where “and” joins values, the source holds several entries; their conditions need not be identical. Equal values may be shown once.

What was measured:
[1] = tested on: normal human epidermal keratinocytes; experiment: Synthesis of total glycosaminoglycans, [3H]-glucosamine incorporation in normal human epidermal keratinocytes; type: cell-based; settings: for % relative to control, glucosamine incorporation / Mean value, radioactive glucosamine incorporated: 72 hours; for incorporation of radioactive glucosamine: result in words
Procedure: The study is carried out by measuring the incorporation of radioactive glucosamine into the matrix neosynthesized by cultures of normal human epidermal keratinocytes. The incorporation of radioactive [^3H]-glucosamine indicates a specific neosynthesis of total glycosaminoglycans.
The test is carried out on a culture of normal human epidermal keratinocytes in a 96-well plate and cultured in culture medium for 24 hours:
Culture medium: Keratinocytes-SFM supplemented with 0.5 ng/ml epidermal growth factor (EGF), 25 μg/ml pituitary extract, 25 μg/ml gentamycin.
Culture conditions: 37° C.; 5% CO2
The medium was then replaced with culture medium containing or not containing (control) the compound (I) tested or the references 4-nitrophenyl-B-D-xylopyranoside (tested at 300 μM) and 4-methylumbelliferyl-B-D-xylopyranoside (tested at 54 μM) or the solvent control (DMSO at 0.1%), then the cells were incubated for 72 hours with addition of the [^3H]-glucosamine label for the final 24 hours of incubation.
The test was carried out with 3 assays for each compound tested, at the concentrations of 1, 10, 100 and 300 μM.
At the end of the incubation, the glycosaminoglycans were extracted from the cells with a chaotropic buffer. The level of radioactive glucosamine incorporated is measured at the end of the test by adsorption of the anionic molecules on Q-sepharose beads, followed by desorption of the molecules having low and medium anionicity with 6M urea plus 0.2 M NaCl. Once washed, the radioactivity incorporated into the very […] molecules remaining on the support is counted.
The results were evaluated relative to a control constituted of cells which had not been treated with the compound (I).
A positive control (TGFβ at 0.25 ng/ml) known to stimulate GAG synthesis was introduced into the test carried as a positive reference.

[2] = tested on: GLUT-1; experiment: GLUT-1 expression in normal human keratinocytes by immuno labeling; type: cell-based; settings: for GLUT-1 expression vs 100% control: 48 hours, n=3; for expression of the GLUT-1 protein: result in words
Procedure: Normal human keratinocytes (NHKs) were seeded and cultured in culture medium for 24 hours and then in test medium for a further 24 hours. After incubation, the medium was replaced with test medium containing or not containing (control) the test compounds or the references, and then the cells were incubated for 48 hours. All the experimental conditions were performed in n=3. After incubation, the culture medium was removed and the cells were rinsed, fixed and permeabilized. GLUT-1 expression was determined by immuno labeling.

| SMILES | % relative to control, glucosamine incorporation ([1]; 54 μM) [%] | Mean value, radioactive glucosamine incorporated ([1]; 54 μM) [cpm] | % relative to control, glucosamine incorporation ([1]; 300 μM) [%] | Mean value, radioactive glucosamine incorporated ([1]; 300 μM) [cpm] | GLUT-1 expression vs 100% control ([2]; compound at 10 μM) | expression of the GLUT-1 protein [2] | % relative to control, glucosamine incorporation ([1]; 1 μM) [%] | Mean value, radioactive glucosamine incorporated ([1]; 1 μM) [cpm] | % relative to control, glucosamine incorporation ([1]; 10 μM) [%] | Mean value, radioactive glucosamine incorporated ([1]; 10 μM) [cpm] | % relative to control, glucosamine incorporation ([1]; 100 μM) [%] | Mean value, radioactive glucosamine incorporated ([1]; 100 μM) [cpm] | incorporation of radioactive glucosamine ([1]; concentration of 1 μM) | incorporation of radioactive glucosamine ([1]; concentration of 10 μM) | incorporation of radioactive glucosamine ([1]; concentration of 300 μM) | incorporation of radioactive glucosamine ([1]; concentration of 100 μM) | GLUT-1 expression vs 100% control ([2]; Reference 2 mM metformine) |
| --- | --- | --- | --- | --- | --- | --- | --- | --- | --- | --- | --- | --- | --- | --- | --- | --- | --- |
| Cc1cc(=O)oc2cc(O[C@@H]3OC[C@@H](O)[C@H](O)[C@H]3O)ccc12 [4-methylumbelliferyl-β-D-xylopyranoside, 4-methylumbelliferyl-B-D-xylopyranoside, reference compound] | 213 | 32202 | – | – | – | – | – | – | – | – | – | – | – | – | – | – | – |
| O=[N+]([O-])c1ccc(O[C@@H]2OC[C@@H](O)[C@H](O)[C@H]2O)cc1 [4-nitrophenyl β-D-xylopyranoside, 4-nitrophenyl-B-D-xylopyranoside, reference compound] | – | – | 207 | 31280 | – | – | – | – | – | – | – | – | – | – | – | – | – |
| CNC(=O)C(O)C1O[C@H](CO)[C@@H](O)[C@H](O)[C@H]1O (stereo partly shown) [Compound 1] | – | – | 97 | 16850 | 159% (p < 0.05) | very significantly stimulated | 125 | 21591 | 117 | 20216 | 118 | 20451 | stimulate the incorporation of radioactive glucosamine | – | – | – | – |
| CCCNC(=O)C(O)C1O[C@H](CO)[C@@H](O)[C@H](O)[C@H]1O (stereo partly shown) [Compound 2] | – | – | 127 | 16929 | – | – | 110 | 14638 | 126 | 16779 | 123 | 16435 | – | stimulate the incorporation of radioactive glucosamine | – | – | – |
| CCCCCCCCCCCCCCNC(=O)C(O)C1O[C@H](CO)[C@@H](O)[C@H](O)[C@H]1O (stereo partly shown) [Compound 4] | – | – | – | – | 142% (p < 0.01) | very significantly stimulated | – | – | – | – | – | – | – | – | – | – | – |
| CNC(=O)C(O)C1OC[C@@H](O)[C@H](O)[C@H]1O (stereo partly shown) [Compound 5] | – | – | 116 | 15495 | – | – | 134 | 17792 | 121 | 16133 | 119 | 15835 | stimulate the incorporation of radioactive glucosamine | – | – | – | – |
| CNC(=O)C(O)C1O[C@@H](C)[C@H](O)[C@@H](O)[C@H]1O (stereo partly shown) [Compound 9] | – | – | 169 | 22845 | – | – | 120 | 16162 | 114 | 15439 | 131 | 17655 | – | – | stimulates the incorporation of radioactive glucosamine | – | – |
| CNC(=O)C(O)C1O[C@H](CO)[C@@H](O)[C@H](O)[C@@H]1O (stereo partly shown) [Compound 13] | – | – | 139 | 18804 | – | – | 119 | 16090 | 129 | 17340 | 134 | 18139 | – | stimulate the incorporation of radioactive glucosamine | – | – | – |
| CNC(=O)C(O)C1O[C@H](CO)[C@H](O)[C@H](O)[C@H]1O (stereo partly shown) [Compound 17] | – | – | 108 | 14498 | – | – | 129 | 17387 | 123 | 16614 | 132 | 17861 | stimulates the incorporation of radioactive glucosamine | stimulates the incorporation of radioactive glucosamine | – | stimulates the incorporation of radioactive glucosamine | – |
| CNC(=O)C(O)C1O[C@H](CO)[C@@H](OC2O[C@H](CO)[C@H](O)[C@H](O)[C@H]2O)[C@H](O)[C@H]1O (stereo partly shown) [Compound 21] | – | – | 134 | 17429 | – | – | 142 | 18416 | 136 | 17611 | 137 | 17796 | stimulates the incorporation of radioactive glucosamine | stimulates the incorporation of radioactive glucosamine | stimulates the incorporation of radioactive glucosamine | – | – |
| CN(C)C(=N)N=C(N)N [metformine, reference compound] | – | – | – | – | – | – | – | – | – | – | – | – | – | – | – | – | 252% (p < 0.01) and 296% (p < 0.001) |
